In brackets after ≈: the same amount, converted by molar mass. Structures can show the parent of a compound that is named as a salt. Where two headings read alike, the source gives them in different places.

The source of these data is patent publication US20100119607A1, “BIOENHANCED COMPOSITIONS” (Rubicon Research Pvt. Ltd., priority 2005, published 2010).

Data set [1] in a line: Solubility of eprosartan mesylate solid dispersions in 0.1N HCl. Format: physicochemical. The settings on record: simulated gastric fluid, thermodynamic from solid.
The conditions of data set [2]: 0.1N HCL with 0.5% SLS, USP Type II, 50 RPM.
For data set [3] the following is noted: background statement in detailed description; cited from earlier work.
Data set [4] can be described thus: Solubility of candesartan cilexetil dispersions in 0.1N HCl. Format: physicochemical. Conditions: simulated gastric fluid.

`CCCCc1ncc(/C=C(\Cc2cccs2)C(=O)O)n1Cc1ccc(C(=O)O)cc1` [Eprosartan mesylate, eprosartan mesylate] showed a solubility in data set [1] of 712 µg/mL.
Turning to `CCCCC(=O)N(Cc1ccc(-c2ccccc2-c2nnn[nH]2)cc1)[C@H](C(=O)O)C(C)C` [Valsartan, valsartan], the “% Cum. Dissolved” value in data set [2] (0 minutes) was 0%; in data set [2] (5 minutes), 1.0%; in data set [2] (10 minutes), 4.1%; in data set [2] (15 minutes), 6.7%; in data set [2] (30 minutes) it was 6.5%; in data set [2] (60 minutes), 9.7%. In addition, the “% Cum. Dissolved” value in data set [2] (120 minutes) worked out at 15.7%; in data set [2] (120 minutes, listed as pure valsartan) it was 15%. The bioavailability in data set [3] is reported as 10-25%.
Take `CCOc1nc2cccc(C(=O)OC(C)OC(=O)OC3CCCCC3)c2n1Cc1ccc(-c2ccccc2-c2nnn[nH]2)cc1` (centres unmarked) [Candesartan cilexetil, candesartan cilexetil]: the solubility in data set [4] was 0.51 µg/mL (≈ 0.835 µM).

Broadly, the solubility is the concentration that dissolves in the medium under given conditions.
